The assay concerns the target EGFR (UniProt P00533).

Structures are written as SMILES. pIC50: −log10 of the molar value.

EGFR, sequence (P00533 whole entry, looked up): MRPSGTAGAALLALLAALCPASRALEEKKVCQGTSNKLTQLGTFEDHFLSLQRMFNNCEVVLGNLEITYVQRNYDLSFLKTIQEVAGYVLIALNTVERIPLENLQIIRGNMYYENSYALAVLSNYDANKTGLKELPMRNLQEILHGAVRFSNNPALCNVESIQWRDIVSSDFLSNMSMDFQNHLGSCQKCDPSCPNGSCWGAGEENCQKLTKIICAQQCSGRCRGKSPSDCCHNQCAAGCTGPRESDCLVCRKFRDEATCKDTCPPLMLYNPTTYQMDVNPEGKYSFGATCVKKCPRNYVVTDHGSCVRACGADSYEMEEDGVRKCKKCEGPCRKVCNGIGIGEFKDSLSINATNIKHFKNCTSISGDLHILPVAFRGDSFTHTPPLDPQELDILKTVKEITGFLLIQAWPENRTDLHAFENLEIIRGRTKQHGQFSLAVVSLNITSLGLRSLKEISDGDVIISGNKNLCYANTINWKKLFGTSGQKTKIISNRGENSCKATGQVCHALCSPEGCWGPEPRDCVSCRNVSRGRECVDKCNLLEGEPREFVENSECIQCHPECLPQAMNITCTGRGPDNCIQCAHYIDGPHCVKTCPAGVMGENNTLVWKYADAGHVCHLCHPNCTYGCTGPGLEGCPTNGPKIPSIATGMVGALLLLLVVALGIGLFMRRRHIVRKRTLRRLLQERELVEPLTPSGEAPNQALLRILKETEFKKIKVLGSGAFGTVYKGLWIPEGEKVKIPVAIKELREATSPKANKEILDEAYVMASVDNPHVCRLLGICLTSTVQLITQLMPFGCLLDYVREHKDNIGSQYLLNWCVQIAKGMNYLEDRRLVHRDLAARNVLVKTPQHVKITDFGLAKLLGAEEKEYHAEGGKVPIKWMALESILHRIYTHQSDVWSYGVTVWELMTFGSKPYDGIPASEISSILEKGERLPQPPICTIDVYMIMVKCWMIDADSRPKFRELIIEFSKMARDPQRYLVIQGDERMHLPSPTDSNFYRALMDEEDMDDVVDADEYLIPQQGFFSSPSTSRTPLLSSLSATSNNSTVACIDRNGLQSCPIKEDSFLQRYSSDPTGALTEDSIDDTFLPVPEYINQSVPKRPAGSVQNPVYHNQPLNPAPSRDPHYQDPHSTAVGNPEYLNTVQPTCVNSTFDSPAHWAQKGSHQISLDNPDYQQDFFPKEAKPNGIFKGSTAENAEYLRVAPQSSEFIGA

On to `COc1cc2c(Nc3ccc(F)c(Cl)c3F)ncnc2cc1OC[C@H]1C[C@@H]2CN(C)C[C@@H]2C1`, for which the pIC50 (usually −log10 of the IC50, conventionally taken in molar units) was above 7.30.
Turning to `COc1cc2c(Nc3cc(Cl)c(Cl)cc3F)ncnc2cc1OC[C@@H]1CO[C@H]2[C@@H]1OC[C@@H]2O`, the negative-log IC50 (pIC50) was above 7.30.
The value for `COc1cc2c(Nc3ccc(Br)c(Cl)c3)ncnc2cc1OCC1CN(C)CCO1` (stereo unspecified) was above 7.30; that for `COc1cc2c(Nc3ccc(Cl)c(Cl)c3)ncnc2cc1OCc1csc(-c2ccc(Cl)cc2)n1` was 6.00 to 7.30.
With `COc1cc2c(Nc3ccc(Br)c(Cl)c3)ncnc2cc1O[C@H]1CO[C@@H]2[C@H]1OC[C@@H]2N1CCOCC1`, the negative-log IC50 (pIC50) is above 7.30.
The value for `COc1cc2c(Nc3cc(Cl)c(Cl)cc3F)ncnc2cc1OC[C@H]1CN2CCOC[C@H]2CO1` was above 7.30.
The value for `COc1cc2c(Nc3ccc(Cl)c(Cl)c3)ncnc2cc1OCCN1CCCCC1` was above 7.30; that for `COc1cc2c(Nc3ccc(Cl)c(Cl)c3)ncnc2cc1OCCC1CCCN1C` (stereo unspecified) was above 7.30; that for `CCC(C(=O)N1CCOC(COc2cc3ncnc(Nc4ccc(Cl)c(Cl)c4)c3cc2OC)C1)c1ccccc1` (stereo unspecified) was above 7.30.
`COc1cc2c(Nc3cc(Cl)c(Cl)cc3F)ncnc2cc1OC[C@@H]1CN2CCOC[C@H]2CO1` had a pIC50 above 7.30.
The value for `COc1cc2c(Nc3ccc(Br)c(Cl)c3F)ncnc2cc1OC[C@H]1CN2CCOC[C@H]2CO1` was above 7.30.
With `COc1cc2c(Nc3ccc(Cl)c(Cl)c3)ncnc2cc1OCC1CN(S(=O)(=O)c2ccccc2)CCO1` (stereo unspecified), the pIC50 was above 7.30.
The value for `COc1cc2c(Nc3ccc(Cl)c(Cl)c3)ncnc2cc1OCC1CN(CC(=O)c2ccccc2)CCO1` (stereo unspecified) was above 7.30; that for `COc1cc2c(Nc3ccc(Cl)c(Cl)c3)ncnc2cc1OCC1CN(S(=O)(=O)c2ccc(C)cc2)CCO1` (stereo unspecified) was above 7.30; that for `COc1cc2c(Nc3ccc(Cl)c(Cl)c3)ncnc2cc1OCc1nccn1Cc1ccccc1` was above 7.30.
The value for `COc1cc2c(Nc3c(F)cccc3F)ncnc2cc1O[C@@H]1CO[C@@H]2[C@H]1OC[C@H]2F` was above 7.30; that for `C=CCCCCCCN1CCOC(COc2cc3ncnc(Nc4ccc(Cl)c(Cl)c4)c3cc2OC)C1` (stereo unspecified) was above 7.30.
`COc1cc2c(Nc3ccccc3F)ncnc2cc1O[C@@H]1CO[C@@H]2[C@H]1OC[C@H]2F` showed a pIC50 above 7.30.
Compound `COc1cc2c(Nc3cc(Cl)ccc3F)ncnc2cc1OCC1CN(C)CCO1` (stereo unspecified) had a negative-log IC50 (pIC50) above 7.30.
With `COc1cc2c(Nc3ccc(Cl)c(Cl)c3)ncnc2cc1OCc1nc(CN2CCCN(C)CC2)cs1`, the pIC50 is above 7.30.
The value for `COc1cc2c(Nc3ccc(Br)cc3Br)ncnc2cc1OCC1CN(C)CCO1` (stereo unspecified) was above 7.30; that for `COc1cc2c(Nc3ccc(Cl)c(Cl)c3)ncnc2cc1OCC1CN(CCCc2ccccc2)CCO1` (stereo unspecified) was above 7.30.
In the case of `COc1cc2c(Nc3ccc(F)c(Cl)c3)ncnc2cc1O[C@@H]1CO[C@@H]2[C@H]1OC[C@H]2F`, the pIC50 is above 7.30.
`COc1cc2c(Nc3ccc(Cl)c(Cl)c3)ncnc2cc1OCC1CN(CCCC#N)CCO1` (stereo unspecified): the negative logarithm of the IC50 (pIC50) is above 7.30.
The value for `COc1cc2c(Nc3ccc(Cl)c(Cl)c3F)ncnc2cc1OC[C@@H]1CN2CCC[C@H]2CO1` was above 7.30; that for `COc1cc2c(Nc3cc(Cl)c(Br)cc3F)ncnc2cc1OC[C@@H]1CN2CCOC[C@H]2CO1` was above 7.30; that for `C#CCN1CCOC(COc2cc3ncnc(Nc4ccc(Cl)c(Cl)c4)c3cc2OC)C1` (stereo unspecified) was above 7.30.
The value for `CCCCc1ccc(C(=O)N2CCOC(COc3cc4ncnc(Nc5ccc(Cl)c(Cl)c5)c4cc3OC)C2)cc1` (stereo unspecified) was above 7.30.
`COc1cc2c(Nc3ccc(Cl)c(Cl)c3)ncnc2cc1OCc1nc(-c2ccccn2)cs1` showed a pIC50 above 7.30.
Consider `COc1cc2c(Nc3ccc(Cl)c(Cl)c3)ncnc2cc1OCC1CN(CCOCCO)CCO1` (stereo unspecified), for which the negative-log IC50 (pIC50) is above 7.30.
The value for `COc1cc2c(Nc3ccc(Br)c(Cl)c3F)ncnc2cc1OCC1CN(C)CCO1` (stereo unspecified) was above 7.30; that for `COc1cc2c(Nc3ccc(Cl)c(Cl)c3Cl)ncnc2cc1O[C@@H]1CO[C@@H]2[C@H]1OC[C@H]2F` was above 7.30; that for `COc1cc2c(Nc3ccc(Br)c(Cl)c3Cl)ncnc2cc1OC[C@H]1CN2CCOC[C@H]2CO1` was above 7.30.
The same measure for `COc1cc2c(Nc3ccc(Cl)c(Cl)c3F)ncnc2cc1OC[C@@H]1CN2CCC[C@H]2C(=O)N1C`: above 7.30; for `COc1cc2c(Nc3ccc(N4CCN(C)CC4)cc3)ncnc2cc1O[C@H]1CO[C@@H]2[C@H]1OC[C@@H]2F`: above 7.30.
For `COc1cc2c(Nc3ccc(Br)c(Cl)c3)ncnc2cc1O[C@H]1CO[C@@H]2[C@H]1OC[C@@H]2N`, the negative logarithm of the IC50 (pIC50) is above 7.30.
Compound `CC(C)Oc1cc2c(Nc3ccc(Cl)c(Cl)c3)ncnc2cc1OCC1CN(C)CCO1` (stereo unspecified) gave a pIC50 above 7.30.
The same measure for `COc1cc2c(Nc3ccc(Cl)c(Cl)c3)ncnc2cc1OCc1csc(-c2ccc(C(F)(F)F)cc2)n1`: 6.00 to 7.30.
Consider `COc1cc2c(Nc3ccc(Cl)c(Cl)c3)ncnc2cc1OCc1csc([C@@H]2CSCN2)n1`, for which the negative logarithm of the IC50 (pIC50) is above 7.30.
The value for `COc1cc2c(Nc3ccc(Br)c(Cl)c3)ncnc2cc1O[C@H]1CO[C@@H]2[C@H]1OC[C@@H]2N1CCN(C)CC1` was above 7.30; that for `COc1cc2c(Nc3ccc(Br)c(Cl)c3)ncnc2cc1O[C@@H]1CO[C@@H]2[C@H]1OC[C@@H]2OS(C)(=O)=O` was above 7.30.
Take `COc1cc2c(Nc3ccc(Cl)c(Cl)c3)ncnc2cc1OCC1CCCCC1`: the pIC50 is above 7.30.
Compound `COc1cc2c(Nc3ccc(Cl)c(Cl)c3F)ncnc2cc1OCC1CN(C)CCO1` (stereo unspecified) showed a negative logarithm of the IC50 (pIC50) above 7.30.
The value for `COc1cc2c(Nc3ccc(Cl)c(Cl)c3)ncnc2cc1OCCNC1CC2CCC(C1)N2C` (stereo unspecified) was above 7.30; that for `CC[C@@H](C)CN1CCOC(COc2cc3ncnc(Nc4ccc(Cl)c(Cl)c4)c3cc2OC)C1` (stereo partly specified) was above 7.30; that for `COc1cc2c(Nc3ccc(Br)c(Cl)c3Cl)ncnc2cc1OC[C@@H]1CO[C@H]2[C@@H]1OC[C@@H]2O` was above 7.30.
The same measure for `COc1cc2c(Nc3ccc(Cl)c(Cl)c3)ncnc2cc1OCCN1CCOCC1`: above 7.30; for `COc1cc2c(Nc3ccc(Cl)c(Cl)c3)ncnc2cc1OCC1CN(C(=O)C2CCCC2)CCO1` (stereo unspecified): above 7.30; for `COc1cc2c(Nc3ccc(Br)c(Cl)c3)ncnc2cc1O[C@H]1CO[C@H]2[C@@H]1OC[C@@H]2OC(F)F`: above 7.30.
Compound `CCOc1cc2c(Nc3ccc(Cl)c(Cl)c3)ncnc2cc1OCC1CN(C)CCO1` (stereo unspecified) showed a pIC50 above 7.30.
The same measure for `COc1cc2c(Nc3ccc(Cl)c(Cl)c3Cl)ncnc2cc1O[C@H]1CO[C@H]2[C@@H]1OC[C@@H]2OC`: above 7.30.
Take `COc1cc2c(Nc3cc(C(F)(F)F)ccc3Br)ncnc2cc1O[C@@H]1CO[C@@H]2[C@H]1OC[C@H]2F`: the negative-log IC50 (pIC50) was above 7.30.
`COc1cc2c(Nc3ccc(Cl)c(Cl)c3Cl)ncnc2cc1OCC1CN(C)CCO1` (stereo unspecified) showed a pIC50 above 7.30.
Regarding `COc1cc2c(Nc3ccc(Cl)c(Cl)c3)ncnc2cc1OCC1CN(C(C)=N)CCCO1` (stereo unspecified), the pIC50 is above 7.30.
The same measure for `CCCC(C)C(=O)N1CCOC(COc2cc3ncnc(Nc4ccc(Cl)c(Cl)c4)c3cc2OC)C1` (stereo unspecified): above 7.30; for `COc1cc2c(Nc3ccc(Cl)c(Cl)c3)ncnc2cc1OCC1COCCN1C` (stereo unspecified): above 7.30.
The value for `CCCC(CCC)C(=O)N1CCOC(COc2cc3ncnc(Nc4ccc(Cl)c(Cl)c4)c3cc2OC)C1` (stereo unspecified) was above 7.30; that for `COc1cc2c(Nc3cccc(Cl)c3)ncnc2cc1O[C@@H]1CO[C@@H]2[C@H]1OC[C@H]2F` was above 7.30.
The same measure for `COc1cc2c(Nc3cccc(Cl)c3C)ncnc2cc1O[C@H]1CO[C@H]2[C@@H]1OC[C@@H]2OC`: above 7.30.
`COc1cc2c(Nc3ccc(F)c(Cl)c3F)ncnc2cc1OCC1CO[C@@H]2[C@@H](OC)CO[C@H]12` (stereo partly specified) had a pIC50 above 7.30.
As for `COc1cc2c(Nc3ccc(Cl)c(Cl)c3)ncnc2cc1OCC1CN(C)CC(C)(C)O1` (stereo unspecified), the negative logarithm of the IC50 (pIC50) was above 7.30.
In the case of `COc1cc2c(Nc3ccc(Cl)c(Cl)c3)ncnc2cc1OCCC1CCCCC1`, the negative-log IC50 (pIC50) was above 7.30.
For `COc1ccc(OC)c(Nc2ncnc3cc(O[C@@H]4CO[C@@H]5[C@H]4OC[C@H]5F)c(OC)cc23)c1`, the negative logarithm of the IC50 (pIC50) is above 7.30.
The same measure for `CCC1(C)CN(C)CC(COc2cc3ncnc(Nc4ccc(Cl)c(Cl)c4)c3cc2OC)O1` (stereo unspecified): above 7.30; for `COc1cc2c(Nc3ccc(Cl)c(Cl)c3F)ncnc2cc1OC[C@H]1CN2CCOC[C@H]2CO1`: above 7.30; for `COc1cc2c(Nc3ccc(Cl)c(Cl)c3)ncnc2cc1OCC1CN(C)CCN1C` (stereo unspecified): above 7.30.
The same measure for `COc1cc2c(Nc3ccc(Cl)c(C)c3)ncnc2cc1OCC1CN(C)CCO1` (stereo unspecified): above 7.30; for `COc1cc2c(Nc3ccc(Cl)c(Cl)c3)ncnc2cc1OCC1CN(C(=O)c2cc(F)ccc2F)CCO1` (stereo unspecified): above 7.30; for `COc1cc2c(Nc3cccc(Cl)c3F)ncnc2cc1O[C@H]1CO[C@@H]2[C@H]1OC[C@@H]2F`: above 7.30.
The same measure for `COc1cc2c(Nc3ccc(C)c(Br)c3)ncnc2cc1OCC1CN(C)CCO1` (stereo unspecified): above 7.30; for `COc1cc2c(Nc3ccc(Cl)c(Cl)c3)ncnc2cc1OCc1csc(CO)n1`: above 7.30.
`CCN1CCC[C@H]1c1nc(COc2cc3ncnc(Nc4ccc(Cl)c(Cl)c4)c3cc2OC)cs1` showed a negative-log IC50 (pIC50) above 7.30.
The same measure for `COc1cc2c(Nc3cccc(Br)c3)ncnc2cc1O[C@@H]1CO[C@@H]2[C@H]1OC[C@H]2F`: above 7.30; for `COc1cc2c(Nc3ccc(Cl)c(Cl)c3)ncnc2cc1OCC1CN(S(C)(=O)=O)CCCO1` (stereo unspecified): above 7.30; for `COc1cc2c(Nc3ccc(Cl)cc3)ncnc2cc1O[C@@H]1CO[C@@H]2[C@H]1OC[C@H]2F`: above 7.30.
The value for `COc1cc2c(Nc3ccc(Cl)c(Cl)c3)ncnc2cc1OCC1CN(C(=O)CCC(C)C)CCO1` (stereo unspecified) was above 7.30; that for `COc1cc2c(Nc3cccc(Cl)c3C)ncnc2cc1O[C@@H]1CO[C@@H]2[C@H]1OC[C@H]2F` was above 7.30; that for `COc1cc2c(Nc3cccc(Br)c3C)ncnc2cc1O[C@H]1CO[C@H]2[C@@H]1OC[C@@H]2OC` was above 7.30.
Turning to `COc1cc2c(Nc3ccc(F)cc3Cl)ncnc2cc1O[C@@H]1CO[C@@H]2[C@H]1OC[C@H]2F`, the negative logarithm of the IC50 (pIC50) is above 7.30.
Take `COc1cc2c(Nc3cc(F)cc(F)c3)ncnc2cc1O[C@@H]1CO[C@@H]2[C@H]1OC[C@H]2F`: the pIC50 was above 7.30.
The same measure for `COc1cc2c(Nc3ccc(Cl)c(Cl)c3)ncnc2cc1OCC1CN(C/C=C/Br)CCO1` (stereo unspecified): above 7.30.

Source of the values: the Kinase Knowledgebase extract (Sharma et al. 2016).
